Data taken from patent publication EP1379634B1 (THE UNIVERSITY OF GEORGIA RESEARCH FOUNDATION, INC., priority 2001, dated 2002).
Residues, ends and D or L forms follow the SMILES beside them. *: point of attachment. Cbz = O=C(OCc1ccccc1)*; CH2F = FC*

Legend:
Taenia crassiceps cysts = assay: Scanning electron microscopy of cyst surfaces removed from treated mice; type: in vivo; settings: cysts removed from treated BALB/c mice
From the text: • Figure 1. Free energy diagrams for various profiles and scenarios of enzyme catalysis; from Murphy, 1995. Biochemistry. 34(14):4507-4510: (a) Free energy diagrams for different concentrations of substrate S in catalyzed and in uncatalyzed reactions. Left panel: Profile I. S<Km such that enzyme is in a "loose" binding configuration with substrate. Right panel: Profile II. S>Km such that the enzyme is in a "tight" binding configuration with the substrate. Nomenclature below the figure indicates derivation of various free energy constants which are referred to in the text. […] In this scenario, the transition state is decreased from TSC1 to TSC2 resulting in a net increase of ΔGB from situation 1 to situation 2. […] Since ΔGES is unchanged in this plot, 100% of the additional binding energy is utilized for catalysis. This property and the increase in ΔAGb is the definition of a catalytic event driven by transition state stabilization, with the latter being the defining catalytic parameter; (c) free energy diagram for catalysis driven by ground state destabilization for a Profile II scenario where ES is decreased and TSC is not changed. From the left panel to the right panel, ES is decreased, whereas TS remains unchanged. Consequently, ΔΔGb remains constant although catalysis is noted (thus the free energy of enzyme/transition state binding is unchanged). […]

Cathepsin H = molecular target: T1, Cathepsin H (Homo sapiens, UniProt P09668); assay: Selectivity test (Steps VI and IX), Cathepsin H; type: biochemical; settings: vehicle 4 X 10^-5 M; pH 6.8, substrate L-R-AFC; 40 µM
T1 sequence (P09668 98-335): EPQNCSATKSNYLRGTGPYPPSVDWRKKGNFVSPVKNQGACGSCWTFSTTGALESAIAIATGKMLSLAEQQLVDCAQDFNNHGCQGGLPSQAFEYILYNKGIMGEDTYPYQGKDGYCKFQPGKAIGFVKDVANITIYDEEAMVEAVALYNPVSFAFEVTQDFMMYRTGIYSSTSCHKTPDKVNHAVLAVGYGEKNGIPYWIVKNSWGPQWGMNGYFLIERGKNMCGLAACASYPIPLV
Protocol: (§1) In order to perform the assay, the vehicle (for Step VI) or inhibitor (for Step IX) were incubated with the appropriate substrate in the correct assay buffer and allowed to equilibrate. Subsequently, the protease was added, and the assay was allowed to incubate for an appropriate time. The concentrations used in this experiment were as follows: Vehicle was set up at 4 X 10^-5 M in final assay buffer; Inhibitor was set up at 3 X 10^-10 M in the final assay buffer. Preferably the dosages employed should be the minimal amount of vehicle or inhibitor necessary to induce inhibition. […] Substrates were set up based upon the preferred substrate for cleavage of the particular enzyme.
(§2) Positive controls were set up similarly as described for test controls, except that a solvent blank was added in substitution for the inhibitor or vehicle (in a volume equal to the volume of inhibitor or vehicle addition). All of the inhibitors and vehicles could be dissolved in dimethylsulfoxide (DMSO), and therefore, this was the solvent of choice. Negative controls were set up by adding the inhibitor or vehicle and the preferred substrates in a tube without the protease. […]
(§3) Percent inhibition was calculated as: %Inhibition = ((AFC positive for "SI"−AFC negative for "SI")−(AFC test−AFC negative for "SI"))/(AFC positive for "SI"−AFC negative for "SI") × 100 [formula] […]

Cathepsin B = Cathepsin B (Homo sapiens, UniProt P07858); assay: Selectivity test (Steps VI and IX), Cathepsin B; type: biochemical; settings: vehicle 4 X 10^-5 M; pH 6.1, substrate Z-ARR-AFC; 40 µM
Protocol: as §1, §2, §3

Row | Compound | Immune cells observed by SEM on cyst surfaces (Taenia crassiceps cysts) | % inhibition (Cathepsin H) | % inhibition (Cathepsin B)
1 | CC(C)C[C@H](NC(=O)OCc1ccccc1)C(=O)N[C@@H](CC(C)C)C(=O)N[C@@H](Cc1ccc(O)cc1)C(=O)CF [Z-LLY-FMK, Z-Leu-Leu-Tyr-FMK] (Cbz-Leu-Leu-Tyr-CH2F) | presence of adherent immune cells |  | 
2 | Mu-Leu-Tyr-AFC [Mu-LY-AFC] |  | 0% | 0%
